Assays:
NFP L147D/L154D mutant = target: T1, NFP L147D/L154D mutant (Medicago truncatula, UniProt Q0GXS4, L147D/L154D); experiment: BLI binding of NFP L147D/L154D mutant ectodomain to S. meliloti LCO-IV
T1 construct: The Medicago truncatula NFP ectodomain (residues 28-246) was codon-optimized; AcMNPV gp67 signal peptide (replaces native residues 1-27) (N, cleaved yes); made in house; host or cells: Sf9 insect cells (Spodoptera frugiperda), baculovirus, secreted into the medium
Source text: Creation of NFP point mutations: The NFP leucine residues L147 and L154 were replaced with aspartate residues. Aspartate is similar in size to leucine, but negatively charged where leucine is hydrophobic. Point mutants of NFP were engineered using site-directed mutagenesis. In particular, a double-mutated NFP was engineered where the leucine residues L147 and L154 were replaced with aspartate residues to create the mutant NFP L147D L154D. Point mutated versions of NFP were expressed and purified as described in Example 1.
NFP mutant binding assays: The binding assay using NFP wild type (WT) protein was replicated seven times, while the binding assay using the NFP mutant NFP L147D L154D was replicated four times.
Biolayer interferometry (BLI): Binding of NFP WT and NFP L147D/L154D mutant to S. meliloti LCO-IV was measured on an Octet RED 96 system (Pall ForteBio). S. meliloti LCO consists of a tetrameric/pentameric N-acetylglucosamine backbone that is O-sulfated on the reducing terminal residue, O-acetylated on the non-reducing terminal residue, and mono-N-acylated by unsaturated C16 acyl groups. Biotinylated ligand conjugates were immobilized on streptavidin biosensors (kinetic quality, Pall ForteBio) at a concentration of 125-250 nM for 5 minutes. The binding assays were replicated 7 times for the NFP WT, and 4 times for the NFP L147D/L154D mutant. Data analysis was performed in GraphPad Prism 6 software (GraphPad Software, Inc.). Equilibrium dissociation constants derived from the steady-state were determined by applying a non-linear regression (one site, specific binding) to the response at equilibrium plotted against the protein concentration. Kinetic parameters were determined by non-linear regression (association followed by dissociation) on the subtracted data. Binding of A. thaliana CERK1 (AtCERK1) to chitopentaose (CO5) and chitooctaose (CO8) was measured in the same way.

Medicago nfp mutants [1] = experiment: Complementation (nodulation) of Medicago nfp mutants, inoculation with S. meliloti strain 2011; type: in vivo, Medicago truncatula; conditions: 6-7 weeks after inoculation with S. meliloti strain 2011, hairy root transformation
Source text: (§1) Complementation assay: Construct assembly, plant growth conditions, hairy root transformations, nodulation and ROS assays were generally conducted as described in Bozsoki et al. (2017) (Bozsoki Z, Cheng J, Feng F, Gysel K, Vinther M, Andersen K R, Oldroyd G, Blaise M, Radutoiu S, Stougaard J (2017) Receptor-mediated chitin perception in legume roots is functionally separable from Nod factor perception. Proc Natl Acad Sci 114: E8118-E8127). The tested transgenes were the mutated LysM receptors described in Example 2.

Medicago nfp mutants [2] = experiment: Complementation (nodulation) of Medicago nfp mutants, inoculation with S. medicae; type: in vivo, Medicago truncatula
Source text: as §1
These complementation experiments were repeated using S. medicae inoculation, which has been reported to nodulate Medicago with higher efficiency. The results shown in FIG. 4B are complementation tests where the plants were inoculated with S. medicae.

[3] = test system: L. japonicus nfr1-1 mutant roots; experiment: Nodulation complementation of L. japonicus nfr1-1 mutants with LjNFR1/MtLYK3 chimeras, M. loti R7A; type: in vivo, Lotus japonicus; conditions: 35 days post inoculation with M. loti R7A
Source text: Complementation assay: Construct assembly, plant growth conditions, hairy root transformations, nodulation and ROS assays were generally conducted as described in Bozsoki et al. (2017) (Bozsoki Z, Cheng J, Feng F, Gysel K, Vinther M, Andersen K R, Oldroyd G, Blaise M, Radutoiu S, Stougaard J (2017) Receptor-mediated chitin perception in legume roots is functionally separable from Nod factor perception. Proc Natl Acad Sci 114: E8118-E8127). A general schematic of the construct is provided in FIG. 3, whereby the pNFR1 promoter was used to drive the chimeric constructs. The tested chimeric receptors in Lotus are depicted as block diagrams below the graph in FIG. 7, where NFR1 domains are shown in white and LYK3 domains are shown in grey, and transverse lines across the block depicting the LysM1 domain indicate sections II and IV. […] Nodules were counted on hairy root transformed L. japonicus nfr1-1 mutant roots 35 days post inoculation with M. loti R7Å. M. loti R7A is the cognate N-fixing bacterial strain for L. japonicus, and is not recognized by M. truncatula.

**Q.** Which “association rate (kon) faster compared to WT NFP-ECD” value (NFP L147D/L154D mutant; FIGS. 19A-19C) does the source give for `CCCCCC/C=C\CCCCC/C=C/C(=O)N[C@H]1[C@H](O[C@H]2[C@H](O)[C@@H](NC(C)=O)[C@H](O[C@H]3[C@H](O)[C@@H](NC(C)=O)[C@H](O[C@H]4[C@H](O)[C@@H](NC(C)=O)C(O)O[C@@H]4COS(=O)(=O)O)O[C@@H]3CO)O[C@@H]2CO)O[C@H](COC(C)=O)[C@@H](O)[C@@H]1O` (some centres unmarked) [S. meliloti LCO-IV] here?
**A.** Its value is 4.5 fold.

**Q.** What about the “dissociation rate (koff) increased compared to WT NFP-ECD” value (NFP L147D/L154D mutant; FIGS. 19A-19C) of the same molecule?
**A.** Its value is 59 fold.

**Q.** And the Kd (NFP L147D/L154D mutant; S. meliloti LCO-IV, FIG. 2B)?
**A.** The Kd was 48 ± 1 µM.

**Q.** What about the Kd (NFP L147D/L154D mutant; purified L147D/L154D NFP-ECD, FIGS. 19A-19C) of the same molecule?
**A.** The Kd was 167 ± 4.2 µM.

**Q.** What about the “affinity compared with NFP WT” value (NFP L147D/L154D mutant; S. meliloti LCO-IV, FIG. 2B) of the same molecule?
**A.** The value was “approximately two times lower affinity”.

**Q.** What about the “association (Kon) compared with NFP WT” value (NFP L147D/L154D mutant; S. meliloti LCO-IV, FIG. 2B) of the same molecule?
**A.** The value was “almost unaffected”.

**Q.** What about the “dissociation (Koff) faster than NFP WT” value (NFP L147D/L154D mutant; S. meliloti LCO-IV, FIG. 2B) of the same molecule?
**A.** The value was “approximately 15 times”.

B1: wild type Nfp gene: wild type Medicago NFP LysM receptor transgene used for hairy root complementation (protein, UniProt Q0GXS4 28-595, looked up)
Serine/threonine …: QPLYISETNFTCPVDSPPSCETYVAYRAQSPNFLSLSNISDIFNLSPLRIAKASNIEAEDKKLIPDQLLLVPVTCGCTKNHSFANITYSIKQGDNFFILSITSYQNLTNYLEFKNFNPNLSPTLLPLDTKVSVPLFCKCPSKNQLNKGIKYLITYVWQDNDNVTLVSSKFGASQVEMLAENNHNFTASTNRSVLIPVTSLPKLDQPSSNGRKSSSQNLALIIGISLGSAFFILVLTLSLVYVYCLKMKRLNRSTSSSETADKLLSGVSGYVSKPTMYEIDAIMEGTTNLSDNCKIGESVYKANIDGRVLAVKKIKKDASEELKILQKVNHGNLVKLMGVSSDNDGNCFLVYEYAENGSLEEWLFSESSKTSNSVVSLTWSQRITIAMDVAIGLQYMHEHTYPRIIHRDITTSNILLGSNFKAKIANFGMARTSTNSMMPKIDVFAFGVVLIELLTGKKAMTTKENGEVVILWKDFWKIFDLEGNREERLRKWMDPKLESFYPIDNALSLASLAVNCTADKSLSRPTIAEIVLCLSLLNQPSSEPMLERSLTSGLDAEATHVVTSVIAR
**Q.** How did the nodules per plant (Medicago nfp mutants [1]) turn out when B1 was run?
**A.** The nodules per plant was 10 nodules per plant.

B2: double mutant construct (L147D/L154D): Medicago NFP with leucine residues L147 and L154 replaced with aspartate (hydrophobic patch mutant) (protein, UniProt Q0GXS4 28-595, looked up, variant L147D L154D)
Serine/threonine …: QPLYISETNFTCPVDSPPSCETYVAYRAQSPNFLSLSNISDIFNLSPLRIAKASNIEAEDKKLIPDQLLLVPVTCGCTKNHSFANITYSIKQGDNFFILSITSYQNLTNYLEFKNFNPNDSPTLLPDDTKVSVPLFCKCPSKNQLNKGIKYLITYVWQDNDNVTLVSSKFGASQVEMLAENNHNFTASTNRSVLIPVTSLPKLDQPSSNGRKSSSQNLALIIGISLGSAFFILVLTLSLVYVYCLKMKRLNRSTSSSETADKLLSGVSGYVSKPTMYEIDAIMEGTTNLSDNCKIGESVYKANIDGRVLAVKKIKKDASEELKILQKVNHGNLVKLMGVSSDNDGNCFLVYEYAENGSLEEWLFSESSKTSNSVVSLTWSQRITIAMDVAIGLQYMHEHTYPRIIHRDITTSNILLGSNFKAKIANFGMARTSTNSMMPKIDVFAFGVVLIELLTGKKAMTTKENGEVVILWKDFWKIFDLEGNREERLRKWMDPKLESFYPIDNALSLASLAVNCTADKSLSRPTIAEIVLCLSLLNQPSSEPMLERSLTSGLDAEATHVVTSVIAR
**Q.** Which results are given for B2?
**A.** complementation (Medicago nfp mutants [2]): complements poorly; nodules per plant (Medicago nfp mutants [1]): did not develop any nodules

B3: LjCERK6: unaltered Lotus CERK6 chitin receptor protein (SEQ ID NO:34), negative control (protein)
chain: MEHPRLGFPITLLLFSFILLPSTSQSKCTHGCALAQASYYLLNGSNLTYISEIMQSSLLTKPEDIVSYNQDTIASKDSVQAGQRINVPFPCDCIEGEFLGHTFQYDVQKGDRYDTIAGTNYANLTTVEWLRRFNSYPPDNIPDTGTLNVTVNCSCGDSGVGDYGLFVTYPLRPGETLGSVASNVKLDSALLQKYNPNVNFNQGSGIVYIPAKDQNGSYVLLGSSSGGLAGGAIAGIAAGVAVCLLLLAGFIYVGYFRKKRIQKEELLSQETRAIFPQDGKDENPRSTVNETPGPGGPAAMAGITVDKSVEFSYDELATATDNFSLANKIGQGGFGSVYYAELRGERAAIKKMDMQASKEFLAELKVLTRVHHLNLVRLIGYSIEGSLFLVYEFIENGNLSQHLRGSGRDPLPWATRVQIALDSARGLEYIHEHTVPVYIHRDIKSANILIDKNYRGKVADFGLTKLTEVGSSSLPTGRLVGTFGYMPPEYAQYGDVSPKVDVYAFGVVLYELISAKDAIVKTSESITDSKGLVALFEGVLSQPDPTEDLRKLVDQRLGDNYPVDSVRKMAQLAKACTQDNPQLRPSMRSIVVALMTLSSTTDDWDVGSFYENQNLVNLMSGR
**Q.** B3 was tested. Which “complementation (nodulation)” value [3] did it give?
**A.** The value was “zero nodulation”.

— US12190997B2, “Genetically altered LysM receptors with altered agonist specificity and affinity” (Aarhus Universitet, priority 2018, dated 2025)
